The source made the active and inactive calls.
Columns and labels:
[1] = molecular target: Induced myeloid leukemia cell differentiation protein Mcl-1 (Homo sapiens, UniProt Q07820); type: functional
[2] = molecular target: DNA damage-inducible transcript 3 protein (Mus musculus, UniProt P35639); type: functional, Cricetulus griseus
[3] = cytotoxicity toward NIH3T3 fibroblasts, dose response, counter-screen, cell-based, ATP luminescence, mouse fibroblasts (AID 2010); type: functional;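 further: cells exposed to compound for about 90 hours before reading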
[4] = Luminescence Cell-Based Dose Retest to Confirm Inhibitors of Cancer Stem Cells. [Related pubchem assays (depositor defined):AID2717, AID2721]; type: functional; conditions: Homo sapiens
INS1 = test: beta cell apoptosis inhibitors, cytokine rescue, dose response, luminescence, retest (AID 449756); type: functional, cell-based; conditions: Rattus norvegicus;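 further: cell death triggered by IL-1 beta plus TNF-alpha plus IFN-gamma mixture; protective hits raise ATP signal compared with cytokine alone wells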
Phospholipase A2 = Phospholipase A2 (Homo sapiens, UniProt P04054); type: functional;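 further: confirmatory dose-response counterscreen on phospholipase A2, testing hits that came from an ultra-high-throughput screen for ATG4B inhibitors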
[5] = inhibitors of intracellular T. cruzi replication, confirmation, NIH3T3 host cells, beta-gal luminescence (AID 2044); type: functional, cell-based;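 further: intracellular parasites grown in NIH/3T3 mouse fibroblasts as host cells; luminescent beta-galactosidase reporter signal from transgenic T. cruzi replicating inside host cells; inhibitors lower the luminescence signal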
Cysteine protease ATG4B = molecular target: T1, Cysteine protease ATG4B (Homo sapiens, UniProt Q9Y4P1); type: functional;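 further: Fluorescence-based dose-response confirmation assay measuring inhibition of ATG4B activity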
T1 sequence (Q9Y4P1 whole entry): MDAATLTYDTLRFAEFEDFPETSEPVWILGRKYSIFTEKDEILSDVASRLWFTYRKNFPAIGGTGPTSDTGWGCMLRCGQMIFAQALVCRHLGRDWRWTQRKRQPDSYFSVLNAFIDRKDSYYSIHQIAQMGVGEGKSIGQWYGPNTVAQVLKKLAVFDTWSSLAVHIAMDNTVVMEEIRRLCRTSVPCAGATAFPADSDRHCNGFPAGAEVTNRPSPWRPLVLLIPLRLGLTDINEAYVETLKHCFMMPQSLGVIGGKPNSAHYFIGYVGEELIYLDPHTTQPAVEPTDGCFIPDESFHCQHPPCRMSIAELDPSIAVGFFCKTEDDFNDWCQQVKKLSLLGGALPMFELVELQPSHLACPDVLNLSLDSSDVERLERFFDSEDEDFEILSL

[6] = molecular target: T2, G-protein coupled receptor 55 (Homo sapiens, UniProt Q9Y2T6); test: SAR Analysis of Selective Antagonists of GPR55 using an Image-Based Assay - Set 3. [Related pubchem assays (depositor defined):AID2058, AID2079]; type: functional
[7] = molecular target: G-protein coupled receptor 35 (Homo sapiens, UniProt Q9HC97); test: SAR analysis of Antagonists of the GPR35 Receptor using an Image-Based Assay - Set 5. [Related pubchem assays (depositor defined):AID2058, AID2079]; type: functional
[8] = molecular target: T3, Mannose-6-phosphate isomerase (Homo sapiens, UniProt P34949); test: human PMI inhibitors, high substrate, primary screen, biochemical, fluorescence intensity, high mannose 6-phosphate (AID 1220)
T3 sequence (P34949 whole entry): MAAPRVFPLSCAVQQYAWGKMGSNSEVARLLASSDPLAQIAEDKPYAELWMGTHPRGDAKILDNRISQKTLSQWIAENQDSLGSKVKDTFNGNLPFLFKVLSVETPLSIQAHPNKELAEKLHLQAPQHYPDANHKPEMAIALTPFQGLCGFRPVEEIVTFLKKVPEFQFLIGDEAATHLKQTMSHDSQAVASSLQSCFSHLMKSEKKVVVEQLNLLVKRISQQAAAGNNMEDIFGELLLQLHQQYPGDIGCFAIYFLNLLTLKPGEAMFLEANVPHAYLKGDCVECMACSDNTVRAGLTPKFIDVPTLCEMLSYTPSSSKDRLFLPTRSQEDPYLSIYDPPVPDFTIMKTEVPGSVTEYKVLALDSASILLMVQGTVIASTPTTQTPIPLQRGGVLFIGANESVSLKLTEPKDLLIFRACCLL

Cytochrome P450 2C9 = Cytochrome P450 2C9 (Homo sapiens, UniProt P11712)
[9] = molecular target: 1-acylglycerol-3-phosphate O-acyltransferase ABHD5/Perilipin-5 (Homo sapiens, UniProt Q00G26+Q8WTS1); test: Luminescence-based biochemical high throughput dose response assay for inhibitors of the interaction of the lipase co-activator protein, abhydrolase domain containing 5 (ABHD5) with perilipin-5 (MLDP; PLIN5) (2K validation set). [Related pubchem assays (depositor defined):AID493035, AID493241]
Perilipin-1/ABHD5 = Perilipin-1/ABHD5 (Homo sapiens, UniProt O60240+Q8WTS1); test: Luminescence-based biochemical high throughput dose response assay for inhibitors of the interaction of the lipase co-activator protein, abhydrolase domain containing 5 (ABHD5) with perilipin-1 (PLIN1) (2K validation set). [Related pubchem assays (depositor defined):AID493027, AID493057]
Cytochrome P450 2D6 = Cytochrome P450 2D6 (Homo sapiens, UniProt P10635);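 further: CYP2D6 member of a cytochrome P450 panel assay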
[10] = molecular target: T4, Dual specificity protein phosphatase 3 (Homo sapiens, UniProt P51452); test: SAR VHR1 Fluorescent Assay for In Vitro dose response studies Set 2. [Related pubchem assays (depositor defined):AID1654, AID1661, AID1878]; type: functional
[11] = molecular target: T5, Dual specificity protein phosphatase 6 (Rattus norvegicus, UniProt Q64346); type: functional;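 further: confirmatory in vitro dose-response testing of MKP-3 inhibition; recombinant His-tagged MKP-3 made in E. coli BL21 with OMFP substrate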
T5 sequence (Q64346 whole entry): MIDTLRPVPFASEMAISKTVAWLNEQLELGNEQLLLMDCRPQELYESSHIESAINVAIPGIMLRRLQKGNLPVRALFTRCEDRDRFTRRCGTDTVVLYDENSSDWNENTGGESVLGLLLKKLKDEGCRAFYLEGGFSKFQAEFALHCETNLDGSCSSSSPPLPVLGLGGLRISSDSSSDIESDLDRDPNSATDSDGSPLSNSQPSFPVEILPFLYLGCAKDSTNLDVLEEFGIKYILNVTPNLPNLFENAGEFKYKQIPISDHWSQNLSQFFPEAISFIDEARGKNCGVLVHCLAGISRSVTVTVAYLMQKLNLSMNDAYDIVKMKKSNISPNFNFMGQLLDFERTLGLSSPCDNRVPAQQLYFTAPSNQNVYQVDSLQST

[12] = molecular target: T6, Tyrosine-protein phosphatase non-receptor type 7 (Homo sapiens, UniProt P35236); test: redox-dependent HePTP inhibition, mechanism study, biochemical, fluorescence (AID 2068); type: functional
T6 sequence (P35236 whole entry): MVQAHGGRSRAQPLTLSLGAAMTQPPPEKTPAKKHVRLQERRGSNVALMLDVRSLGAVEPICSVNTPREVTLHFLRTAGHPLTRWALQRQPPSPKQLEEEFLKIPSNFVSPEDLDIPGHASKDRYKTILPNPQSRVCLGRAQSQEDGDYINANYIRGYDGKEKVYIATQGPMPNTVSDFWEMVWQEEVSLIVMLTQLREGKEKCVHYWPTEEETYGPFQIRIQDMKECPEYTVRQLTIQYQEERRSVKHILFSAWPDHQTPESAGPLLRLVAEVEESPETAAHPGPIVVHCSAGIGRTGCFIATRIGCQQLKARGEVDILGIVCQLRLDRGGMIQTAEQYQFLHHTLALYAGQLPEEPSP

[13] = molecular target: T4, Dual specificity protein phosphatase 3; test: SAR VHR1 absorbance Assay for In Vitro dose response studies. [Related pubchem assays (depositor defined):AID1654, AID1661, AID1878, AID1992, AID2004]
[14] = molecular target: T4, Dual specificity protein phosphatase 3; test: SAR VHR1 Fluorescent Assay for In Vitro dose response studies. [Related pubchem assays (depositor defined):AID1654, AID1661, AID1878, AID1992, AID2004, AID2070, AID2085]; type: functional
Trypanosoma cruzi = test: growth inhibition of intracellular Trypanosoma cruzi, dose response, cell-based, plate reader, dry powder, set 3 (AID 493197); type: functional
[15] = cytotoxicity in NIH/3T3 mouse fibroblasts, dose response, cytotoxicity control, cell-based, mouse embryonic fibroblasts, dry powder, set 2 (AID 493247); type: functional; conditions: Fibroblast
[16] = molecular target: T7, Alkaline phosphatase, tissue-nonspecific isozyme (Homo sapiens, UniProt P05186); test: human TNAP enzyme inhibitors, SAR follow-up, biochemical, luminescent, dose response (AID 1056)
T7 sequence (P05186 whole entry): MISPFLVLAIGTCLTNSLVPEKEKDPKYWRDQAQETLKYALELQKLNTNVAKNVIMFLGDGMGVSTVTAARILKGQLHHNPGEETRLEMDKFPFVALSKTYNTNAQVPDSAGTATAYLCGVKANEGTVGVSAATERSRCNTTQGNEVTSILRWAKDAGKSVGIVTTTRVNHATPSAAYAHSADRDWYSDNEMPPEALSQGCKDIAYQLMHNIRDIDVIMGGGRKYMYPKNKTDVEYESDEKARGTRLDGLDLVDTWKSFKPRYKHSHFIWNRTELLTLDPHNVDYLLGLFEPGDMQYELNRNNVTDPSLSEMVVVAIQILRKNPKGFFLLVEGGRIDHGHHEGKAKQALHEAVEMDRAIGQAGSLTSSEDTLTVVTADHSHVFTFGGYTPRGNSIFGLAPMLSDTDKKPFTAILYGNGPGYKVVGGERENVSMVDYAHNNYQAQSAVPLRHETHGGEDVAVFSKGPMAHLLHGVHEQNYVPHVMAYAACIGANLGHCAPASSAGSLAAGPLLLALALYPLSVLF

[17] = molecular target: Glyceraldehyde-3-phosphate dehydrogenase (Homo sapiens, UniProt P04406)
Ion channel NompC = Ion channel NompC (Danio rerio, UniProt Q7T1G6); test: Dose response cell-based high-throughput screening assay for agonists of the transient receptor potential channel N1 (TRPN1). [Related pubchem assays (depositor defined):AID1424, AID1448]; type: functional
Mucolipin-3 = molecular target: T8, Mucolipin-3 (Homo sapiens, UniProt Q8TDD5); test: Fluorescence counterscreen assay for […] agonists: dose response cell-based high-throughput screening assay to identify agonists of the transient receptor potential channel ML3 (TRPML3). [Related pubchem assays: 1424, 1448 ]; type: functional
T8 sequence (Q8TDD5 whole entry): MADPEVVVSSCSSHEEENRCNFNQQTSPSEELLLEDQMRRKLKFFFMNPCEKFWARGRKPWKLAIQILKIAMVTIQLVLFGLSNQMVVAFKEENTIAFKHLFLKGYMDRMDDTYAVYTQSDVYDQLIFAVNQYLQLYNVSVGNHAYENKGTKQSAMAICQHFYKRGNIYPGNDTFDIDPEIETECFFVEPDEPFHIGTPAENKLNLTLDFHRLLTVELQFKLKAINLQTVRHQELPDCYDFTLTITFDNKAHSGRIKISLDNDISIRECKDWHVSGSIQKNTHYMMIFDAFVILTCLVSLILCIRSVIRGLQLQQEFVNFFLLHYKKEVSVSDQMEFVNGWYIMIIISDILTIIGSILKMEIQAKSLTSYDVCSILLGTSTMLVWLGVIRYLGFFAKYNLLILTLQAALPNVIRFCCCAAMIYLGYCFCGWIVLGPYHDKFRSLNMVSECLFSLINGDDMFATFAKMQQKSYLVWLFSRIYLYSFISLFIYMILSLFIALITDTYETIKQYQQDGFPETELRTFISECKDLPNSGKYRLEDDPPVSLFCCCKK

[18] = molecular target: Delta-type opioid receptor (Homo sapiens, UniProt P41143); test: SAR Analysis of Antagonists of the DOR Receptor using an Image-Based Assay - Set 3. [Related pubchem assays (depositor defined):AID1777, AID1785]; type: functional;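 further: U2OS cells expressing DOR1 and beta-arrestin GFP stimulated with 100 nM SNC80; imaging of GFP-tagged beta-arrestin moving into spots after receptor activation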
[19] = molecular target: T9, Kappa-type opioid receptor (Homo sapiens, UniProt P41145); test: SAR analysis of small molecule antagonists of the kappa opioid receptor via a luminescent beta-arrestin assay - Set 3. [Related pubchem assays (depositor defined):AID1777, AID1778, AID1785, AID1786, AID1966, AID2133, AID2136, AID2285, AID2495]; type: functional
Mu-type opioid receptor = Mu-type opioid receptor (Homo sapiens, UniProt P35372); test: SAR Analysis of Antagonists of the MOR Receptor using an Image-Based Assay - Set 3. [Related pubchem assays (depositor defined):AID1777, AID1785, AID1786, AID1966, AID2133, AID2136, AID2284, AID2285, AID2420]; type: functional
[20] = molecular target: T9, Kappa-type opioid receptor; test: SAR analysis of Antagonists of the Kappa Opioid Receptor (KOR) using an Image-Based Assay - Set 4. [Related pubchem assays (depositor defined):AID1777, AID1785]; type: functional
[21] = molecular target: T2, G-protein coupled receptor 55; test: GPR55 agonists via beta-arrestin recruitment, primary screen, imaging, U2OS cells, beta-arrestin-GFP redistribution (AID 1961); type: functional

T4 sequence (P51452 whole entry): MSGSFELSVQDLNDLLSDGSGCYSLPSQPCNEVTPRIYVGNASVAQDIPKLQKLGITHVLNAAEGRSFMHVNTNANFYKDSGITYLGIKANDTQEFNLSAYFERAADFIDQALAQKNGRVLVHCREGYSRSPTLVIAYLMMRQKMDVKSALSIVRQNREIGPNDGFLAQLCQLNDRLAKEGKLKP
T2 sequence (Q9Y2T6 whole entry): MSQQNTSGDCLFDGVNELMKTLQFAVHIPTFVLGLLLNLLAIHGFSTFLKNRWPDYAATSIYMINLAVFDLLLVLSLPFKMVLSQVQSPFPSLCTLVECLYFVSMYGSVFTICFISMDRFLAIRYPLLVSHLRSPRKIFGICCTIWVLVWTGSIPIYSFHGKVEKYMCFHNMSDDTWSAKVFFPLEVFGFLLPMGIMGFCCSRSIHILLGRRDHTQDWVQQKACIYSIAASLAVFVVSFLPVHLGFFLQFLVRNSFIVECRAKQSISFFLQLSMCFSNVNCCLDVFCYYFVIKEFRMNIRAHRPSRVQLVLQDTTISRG
T9 sequence (P41145 whole entry): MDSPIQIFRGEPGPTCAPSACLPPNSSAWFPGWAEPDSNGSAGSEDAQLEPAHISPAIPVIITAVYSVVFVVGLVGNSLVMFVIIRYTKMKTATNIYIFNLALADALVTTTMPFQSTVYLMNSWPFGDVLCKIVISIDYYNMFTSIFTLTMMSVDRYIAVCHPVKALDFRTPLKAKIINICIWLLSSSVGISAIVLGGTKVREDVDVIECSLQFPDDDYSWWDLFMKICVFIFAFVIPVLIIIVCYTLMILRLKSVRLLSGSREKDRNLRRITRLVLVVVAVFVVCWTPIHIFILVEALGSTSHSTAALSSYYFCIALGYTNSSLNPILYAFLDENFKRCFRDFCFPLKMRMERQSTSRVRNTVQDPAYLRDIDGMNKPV
Sequence of Induced myeloid leukemia cell differentiation protein Mcl-1 (Q07820 whole entry): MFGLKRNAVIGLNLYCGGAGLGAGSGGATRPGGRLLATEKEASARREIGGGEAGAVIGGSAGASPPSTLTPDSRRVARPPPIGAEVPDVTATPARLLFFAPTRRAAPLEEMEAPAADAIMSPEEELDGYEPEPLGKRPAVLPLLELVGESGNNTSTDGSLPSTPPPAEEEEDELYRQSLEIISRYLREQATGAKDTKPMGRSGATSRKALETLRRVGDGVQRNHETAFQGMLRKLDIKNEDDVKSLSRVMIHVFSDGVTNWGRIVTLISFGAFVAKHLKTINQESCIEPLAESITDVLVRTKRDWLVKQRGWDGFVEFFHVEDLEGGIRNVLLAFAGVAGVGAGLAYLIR
Sequence of Glyceraldehyde-3-phosphate dehydrogenase (P04406 whole entry): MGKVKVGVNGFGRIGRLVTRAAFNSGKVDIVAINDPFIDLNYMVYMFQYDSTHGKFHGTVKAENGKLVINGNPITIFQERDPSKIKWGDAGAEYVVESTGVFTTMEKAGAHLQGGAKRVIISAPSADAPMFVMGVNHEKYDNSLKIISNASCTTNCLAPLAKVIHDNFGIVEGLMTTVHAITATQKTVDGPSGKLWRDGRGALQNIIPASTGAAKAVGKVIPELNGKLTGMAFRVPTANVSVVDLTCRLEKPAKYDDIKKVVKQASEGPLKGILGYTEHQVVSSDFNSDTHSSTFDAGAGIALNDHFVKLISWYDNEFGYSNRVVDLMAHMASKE
Sequence of Delta-type opioid receptor (P41143 whole entry): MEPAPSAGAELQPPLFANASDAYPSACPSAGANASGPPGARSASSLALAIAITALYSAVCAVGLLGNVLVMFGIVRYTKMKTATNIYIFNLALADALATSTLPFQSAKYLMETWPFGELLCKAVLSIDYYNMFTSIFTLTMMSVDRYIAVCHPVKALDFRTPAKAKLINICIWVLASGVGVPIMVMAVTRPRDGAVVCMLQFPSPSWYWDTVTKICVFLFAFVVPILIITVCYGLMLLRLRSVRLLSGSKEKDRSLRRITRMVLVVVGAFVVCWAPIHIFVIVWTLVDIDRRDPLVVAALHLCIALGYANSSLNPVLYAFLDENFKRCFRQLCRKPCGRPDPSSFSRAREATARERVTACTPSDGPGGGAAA
Sequence of G-protein coupled receptor 35 (Q9HC97 whole entry): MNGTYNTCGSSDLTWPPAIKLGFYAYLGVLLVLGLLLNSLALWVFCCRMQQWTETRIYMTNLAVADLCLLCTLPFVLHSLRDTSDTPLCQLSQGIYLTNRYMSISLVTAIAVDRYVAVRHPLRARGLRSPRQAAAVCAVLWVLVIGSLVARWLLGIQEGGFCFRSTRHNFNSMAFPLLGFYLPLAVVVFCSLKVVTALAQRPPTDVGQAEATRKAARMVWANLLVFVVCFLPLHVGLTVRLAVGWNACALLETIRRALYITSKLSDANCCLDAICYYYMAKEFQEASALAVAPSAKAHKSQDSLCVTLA
Sequence of DNA damage-inducible transcript 3 protein (P35639 whole entry): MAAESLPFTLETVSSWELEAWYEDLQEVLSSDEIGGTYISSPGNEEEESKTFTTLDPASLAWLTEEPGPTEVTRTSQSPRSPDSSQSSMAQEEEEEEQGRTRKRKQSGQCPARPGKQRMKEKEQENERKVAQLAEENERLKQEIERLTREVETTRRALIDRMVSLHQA
Sequence of Ion channel NompC (Q7T1G6 whole entry): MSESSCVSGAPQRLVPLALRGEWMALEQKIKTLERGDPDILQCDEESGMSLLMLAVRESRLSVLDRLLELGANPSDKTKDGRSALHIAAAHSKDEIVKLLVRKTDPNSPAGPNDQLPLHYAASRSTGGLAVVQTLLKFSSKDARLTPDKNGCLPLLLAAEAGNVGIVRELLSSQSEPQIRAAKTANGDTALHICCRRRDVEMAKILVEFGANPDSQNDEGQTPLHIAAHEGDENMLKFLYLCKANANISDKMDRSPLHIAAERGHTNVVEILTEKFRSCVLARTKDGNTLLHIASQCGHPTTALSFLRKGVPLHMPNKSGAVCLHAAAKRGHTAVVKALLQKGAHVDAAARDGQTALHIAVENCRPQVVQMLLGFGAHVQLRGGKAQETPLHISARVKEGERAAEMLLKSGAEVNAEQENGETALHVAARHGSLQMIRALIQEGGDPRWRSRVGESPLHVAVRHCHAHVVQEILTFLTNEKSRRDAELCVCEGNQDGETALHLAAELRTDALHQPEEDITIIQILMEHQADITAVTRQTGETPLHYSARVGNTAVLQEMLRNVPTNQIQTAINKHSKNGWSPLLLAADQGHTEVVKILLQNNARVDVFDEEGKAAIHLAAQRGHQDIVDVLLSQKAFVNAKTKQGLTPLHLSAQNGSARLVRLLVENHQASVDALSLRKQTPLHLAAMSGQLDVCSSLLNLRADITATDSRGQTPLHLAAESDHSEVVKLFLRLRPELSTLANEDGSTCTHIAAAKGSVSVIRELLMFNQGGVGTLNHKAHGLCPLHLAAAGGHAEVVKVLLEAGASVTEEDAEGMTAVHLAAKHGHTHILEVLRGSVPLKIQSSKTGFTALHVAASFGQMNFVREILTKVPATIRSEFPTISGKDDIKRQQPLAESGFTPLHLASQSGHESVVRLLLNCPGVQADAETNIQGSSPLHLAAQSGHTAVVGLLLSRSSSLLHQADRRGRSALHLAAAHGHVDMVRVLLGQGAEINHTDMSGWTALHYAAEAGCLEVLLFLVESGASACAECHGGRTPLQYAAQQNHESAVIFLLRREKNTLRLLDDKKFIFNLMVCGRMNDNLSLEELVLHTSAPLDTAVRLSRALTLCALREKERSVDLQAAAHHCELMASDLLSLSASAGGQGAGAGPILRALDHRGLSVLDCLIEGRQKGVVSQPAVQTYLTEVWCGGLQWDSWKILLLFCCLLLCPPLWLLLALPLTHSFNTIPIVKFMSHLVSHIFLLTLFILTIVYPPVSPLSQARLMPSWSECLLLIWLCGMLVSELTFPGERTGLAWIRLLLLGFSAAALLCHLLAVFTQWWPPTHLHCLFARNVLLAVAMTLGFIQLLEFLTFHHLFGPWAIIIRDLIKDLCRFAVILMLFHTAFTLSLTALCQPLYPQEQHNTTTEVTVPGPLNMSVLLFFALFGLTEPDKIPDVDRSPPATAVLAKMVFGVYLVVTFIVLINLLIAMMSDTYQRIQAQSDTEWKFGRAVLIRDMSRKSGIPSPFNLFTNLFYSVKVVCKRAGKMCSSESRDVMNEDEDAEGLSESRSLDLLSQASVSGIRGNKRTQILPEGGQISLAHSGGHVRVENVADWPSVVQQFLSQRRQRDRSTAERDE
Sequence of Mu-type opioid receptor (P35372 whole entry): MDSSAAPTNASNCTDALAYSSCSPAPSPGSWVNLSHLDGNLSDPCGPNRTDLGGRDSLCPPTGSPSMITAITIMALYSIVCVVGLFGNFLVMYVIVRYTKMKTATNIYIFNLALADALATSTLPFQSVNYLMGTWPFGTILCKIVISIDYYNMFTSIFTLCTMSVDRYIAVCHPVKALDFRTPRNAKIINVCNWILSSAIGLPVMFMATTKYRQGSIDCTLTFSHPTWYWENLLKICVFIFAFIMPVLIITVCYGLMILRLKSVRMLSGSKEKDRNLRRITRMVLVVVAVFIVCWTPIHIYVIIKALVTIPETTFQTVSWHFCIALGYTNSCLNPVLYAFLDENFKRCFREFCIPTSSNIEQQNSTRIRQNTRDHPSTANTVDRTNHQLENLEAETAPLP
Sequence of Cytochrome P450 2D6 (P10635 whole entry): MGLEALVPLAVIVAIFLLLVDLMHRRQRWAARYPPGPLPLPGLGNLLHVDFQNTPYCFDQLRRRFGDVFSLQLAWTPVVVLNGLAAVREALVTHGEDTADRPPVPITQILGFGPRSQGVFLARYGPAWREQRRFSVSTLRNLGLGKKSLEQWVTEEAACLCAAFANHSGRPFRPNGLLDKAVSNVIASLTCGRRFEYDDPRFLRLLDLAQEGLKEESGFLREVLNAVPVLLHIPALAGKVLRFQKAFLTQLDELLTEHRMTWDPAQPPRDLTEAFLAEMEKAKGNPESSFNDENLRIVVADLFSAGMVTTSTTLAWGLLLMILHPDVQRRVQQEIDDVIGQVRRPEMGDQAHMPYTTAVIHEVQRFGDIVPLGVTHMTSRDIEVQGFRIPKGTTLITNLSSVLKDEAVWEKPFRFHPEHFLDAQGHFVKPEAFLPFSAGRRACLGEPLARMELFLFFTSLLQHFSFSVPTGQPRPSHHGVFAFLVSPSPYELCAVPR

Cc1ccccc1/C=N/Nc1ccnc2cc(Cl)ccc12
IC50 [1]: 5.13 µM (active) | Absolute IC50 (CHOP) [2]: 10 µM | EC50 [3]: > 60 µM (not active) | AC50 [4]: 3.62 µM (active) | AC50 (INS1): 5.39 µM (active) | IC50 (Phospholipase A2): 11.4 µM (active) | EC50 [5]: 1.07 µM (active) | IC50 (Cysteine protease ATG4B): 14.7 µM (active)

COC(=O)c1cnn(-c2ccccc2)c1/C=N/NC(N)=S
IC50 [6]: > 32 µM (inactive) | IC50 [7]: > 32 µM (inactive)

Nc1cc(-c2ccncc2)c[nH]c1=O [INAMRINONE]
IC50 [8]: > 50 µM (not active) | AC50 (Cytochrome P450 2C9): 12.6 µM (inconclusive) | IC50 [9]: 78.8 µM (inactive) | IC50 (Perilipin-1/ABHD5): > 79.5 µM (inactive) | AC50 (Cytochrome P450 2D6): 12.6 µM (inconclusive)

CNS(=O)(=O)c1cccc(C(=O)NC2CCSc3ccccc32)c1 (stereo unspecified)
IC50 [10]: > 100 µM (inactive) | IC50 [11]: > 100 µM (inactive) | IC50 [12]: > 100 µM (inactive) | IC50 [13]: > 100 µM (inactive) | IC50 [14]: > 100 µM (inactive)

CCCNC(=O)C1(C)CCCN(Cc2ccc(Oc3ccccc3)cc2)C1 (stereo unspecified)
AC50 (Trypanosoma cruzi): 8.72 µM (active) | AC50 [15]: 22.9 µM (active)

O=S(=O)(Nc1cnc2ccccc2c1)c1ccc(F)cc1
IC50 [16]: > 100 µM (inactive) | IC50 [17]: > 100 µM (not active)

CCOC(=O)C1CN(S(=O)(=O)c2ccc(C)cc2)CCN1S(=O)(=O)c1ccc(C)cc1 (stereo unspecified)
EC50 (Ion channel NompC): > 29.9 µM (inactive) | EC50 (Mucolipin-3): > 29.9 µM (not active)

CCN(CCNC(=O)c1ccc(CNS(=O)(=O)c2ccccc2)cc1)Cc1ccccc1
IC50 [18]: > 32 µM (inactive) | IC50 [19]: 4.86 µM (active) | IC50 (Mu-type opioid receptor): 2.03 µM (active) | IC50 [20]: 12.1 µM (inactive)

COc1ccc(-c2cc(C(F)(F)F)n3nc(C(=O)NCc4ccco4)cc3n2)cc1
EC50 [21]: > 32 µM (inactive)

From ChEMBL document CHEMBL1201862, “PubChem BioAssay data set” (2004)
